The record followed here is patent publication US20250188040A1, “PHARMACEUTICAL COMPOSITIONS COMPRISING WRN HELICASE INHIBITORS” (Vividion Therapeutics, Inc., priority 2022, published 2025).

Test [1] concerns the target hWRN(519-1227)_C-H3CV-GFP-10His (Homo sapiens, UniProt Q14191). Briefly: Helicase Assay for WRN Inhibition (ATP-dependent, fluorescence based). Particulars: WRN Helicase IC50, 30 min preincubation with ATP, 30 min reaction.
The test system of another test is SW480 cells. Put plainly: Cell growth assay (CellTiter-Glo 2.0), SW480 MSS cell line. The conditions noted are these: Homo sapiens, SW480, 120 h, read-out: Cell Growth Inhibition GI50 SW480. For orientation: In ATP-based viability assays light output follows the ATP content of the culture.
The next test concerns HCT 116 cells. Put plainly: Cell growth assay (CellTiter-Glo 2.0), HCT 116 MSI-H cell line. The conditions noted are these: Homo sapiens, HCT-116, 120 h, read-out: Cell Growth Inhibition GI50 HCT-116.
For another test, the target named is T1, WRN C727 (Homo sapiens, UniProt Q14191).
T1 construct: endogenous in cells; host or cells: OCI-AML2
T1 sequence (Q14191 whole entry): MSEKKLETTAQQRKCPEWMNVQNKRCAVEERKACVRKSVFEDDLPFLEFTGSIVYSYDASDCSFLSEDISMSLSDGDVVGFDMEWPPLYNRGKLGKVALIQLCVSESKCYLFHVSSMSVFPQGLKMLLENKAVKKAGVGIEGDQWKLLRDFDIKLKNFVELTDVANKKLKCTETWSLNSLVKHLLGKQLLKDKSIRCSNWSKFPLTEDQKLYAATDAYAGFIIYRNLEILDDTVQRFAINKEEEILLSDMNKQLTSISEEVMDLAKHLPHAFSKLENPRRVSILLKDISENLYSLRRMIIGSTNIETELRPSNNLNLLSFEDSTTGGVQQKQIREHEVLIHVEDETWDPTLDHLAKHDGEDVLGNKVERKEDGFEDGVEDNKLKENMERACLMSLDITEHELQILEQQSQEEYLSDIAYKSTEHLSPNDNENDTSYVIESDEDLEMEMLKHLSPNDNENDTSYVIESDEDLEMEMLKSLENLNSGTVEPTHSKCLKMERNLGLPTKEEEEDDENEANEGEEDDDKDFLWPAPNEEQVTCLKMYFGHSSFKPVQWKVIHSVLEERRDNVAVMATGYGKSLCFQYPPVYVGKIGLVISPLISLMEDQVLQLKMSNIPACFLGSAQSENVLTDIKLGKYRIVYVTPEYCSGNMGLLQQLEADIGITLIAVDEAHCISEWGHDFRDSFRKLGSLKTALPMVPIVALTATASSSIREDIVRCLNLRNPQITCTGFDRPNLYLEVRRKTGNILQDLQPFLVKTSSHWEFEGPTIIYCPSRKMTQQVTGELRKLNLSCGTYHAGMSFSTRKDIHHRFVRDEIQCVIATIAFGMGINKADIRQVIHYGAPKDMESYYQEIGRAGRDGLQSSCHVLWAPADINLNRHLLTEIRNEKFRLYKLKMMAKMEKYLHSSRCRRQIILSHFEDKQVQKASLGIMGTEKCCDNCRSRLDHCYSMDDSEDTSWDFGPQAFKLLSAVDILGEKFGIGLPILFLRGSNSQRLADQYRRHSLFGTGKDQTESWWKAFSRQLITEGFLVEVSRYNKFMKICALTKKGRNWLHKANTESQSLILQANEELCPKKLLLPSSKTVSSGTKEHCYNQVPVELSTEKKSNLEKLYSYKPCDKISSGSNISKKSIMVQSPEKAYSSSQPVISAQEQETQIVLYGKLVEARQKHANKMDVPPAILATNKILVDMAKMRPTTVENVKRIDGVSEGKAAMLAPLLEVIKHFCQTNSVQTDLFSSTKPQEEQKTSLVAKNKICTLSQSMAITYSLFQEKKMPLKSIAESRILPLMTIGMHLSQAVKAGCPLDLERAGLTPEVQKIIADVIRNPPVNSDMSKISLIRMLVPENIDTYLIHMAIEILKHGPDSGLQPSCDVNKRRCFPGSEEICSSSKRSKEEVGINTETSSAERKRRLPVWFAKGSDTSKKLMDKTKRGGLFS
Put plainly: Target engagement, in vitro (lysate), OCI-AML2. The format is binding. The conditions noted are these: read-out: OCI-AML2 WRN C727 TE50 in vitro (lysate). The essentials:
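OCI-AML2 intact cells or lysates dosed with compound, then a cysteine-reactive probe; after trypsin digestion, probe-labelled peptides were streptavidin-enriched and quantified by nano-LC parallel reaction monitoring MS. Engagement (%) relative to DMSO controls.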

Sequence of hWRN(519-1227)_C-H3CV-GFP-10His (Q14191 519-1227): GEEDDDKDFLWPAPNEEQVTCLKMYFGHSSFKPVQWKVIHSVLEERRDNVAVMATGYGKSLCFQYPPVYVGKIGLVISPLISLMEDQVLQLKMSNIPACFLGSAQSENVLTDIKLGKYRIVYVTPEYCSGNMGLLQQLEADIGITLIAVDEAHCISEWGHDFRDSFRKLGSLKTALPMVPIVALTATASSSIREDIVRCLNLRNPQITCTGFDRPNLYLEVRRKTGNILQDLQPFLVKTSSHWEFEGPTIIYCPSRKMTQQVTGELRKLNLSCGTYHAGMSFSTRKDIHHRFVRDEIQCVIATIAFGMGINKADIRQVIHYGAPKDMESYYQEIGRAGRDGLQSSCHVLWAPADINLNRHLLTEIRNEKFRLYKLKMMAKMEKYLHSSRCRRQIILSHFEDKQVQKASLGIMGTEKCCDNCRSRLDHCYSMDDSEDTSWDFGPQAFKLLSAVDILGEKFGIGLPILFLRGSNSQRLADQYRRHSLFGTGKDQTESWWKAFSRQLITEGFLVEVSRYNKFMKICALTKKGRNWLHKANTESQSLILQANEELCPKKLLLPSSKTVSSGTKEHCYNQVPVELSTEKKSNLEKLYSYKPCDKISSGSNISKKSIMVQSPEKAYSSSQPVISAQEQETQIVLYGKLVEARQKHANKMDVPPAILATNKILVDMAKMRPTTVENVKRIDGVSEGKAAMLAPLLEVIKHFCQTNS

As to `C[C@@H](/C=C/S(C)(=O)=O)NC(=O)c1cnc(C2CC(F)(F)C2)nc1Oc1ccccc1` [Example 103, (S,E)-2-(3,3-difluorocyclobutyl)-N-(4-(methylsulfonyl)but-3-en-2-yl)-4-phenoxypyrimidine-5-carboxamide], the IC50 in test [1] was 1.5 µM; on WRN C727, 3.43 µM. Besides, the GI50 – broadly, the concentration that inhibits growth by half – in the test with SW480 cells amounted to 20.4 µM; with HCT 116 cells, 0.359 µM.
In the same order, the values of `CS(=O)(=O)/C=C/CNC(=O)c1cnc(C2CCCC2)nc1Oc1ccc(F)cc1` [Example 112, (E)-2-cyclopentyl-4-(4-fluorophenoxy)-N-(3-(methylsulfonyl)allyl)pyrimidine-5-carboxamide] are 4.6 µM, 7.43 µM, over 10 µM and 4.8 µM.
Regarding `C[C@@H](/C=C/S(C)(=O)=O)NC(=O)c1cnc(C2CCCC2)nc1Oc1ccc(F)cc1` [Example 113, (S,E)-2-cyclopentyl-4-(4-fluorophenoxy)-N-(4-(methylsulfonyl)but-3-en-2-yl)pyrimidine-5-carboxamide], the IC50 was 1.8 µM in test [1] and 2.33 µM at WRN C727. Besides, the GI50 with SW480 cells was determined as 6.2 µM; in the test on HCT 116 cells it was 1.1 µM.
In the same order, the values of `C[C@@H](/C=C/S(C)(=O)=O)NC(=O)c1cnc(C2CCCC2)nc1Oc1ccccc1F` [Example 115, (S,E)-2-cyclopentyl-4-(2-fluorophenoxy)-N-(4-(methylsulfonyl)but-3-en-2-yl)pyrimidine-5-carboxamide] are 2.9 µM, 30.1 µM, over 10 µM and 2.1 µM.
`CS(=O)(=O)/C=C/CNC(=O)c1cnc(C2CCCC2)nc1Oc1cccc(Cl)c1` [Example 117, (E)-4-(3-chlorophenoxy)-2-cyclopentyl-N-(3-(methylsulfonyl)allyl)pyrimidine-5-carboxamide]: the IC50 is 6.7 µM in test [1] and over 100 µM at WRN C727. For the same molecule, the GI50 in the test with SW480 cells turned out to be 7.4 µM; in the test with HCT 116 cells, 6 µM.
In the same order, the values of `C[C@@H](/C=C/S(C)(=O)=O)NC(=O)c1cnc(C2CCCC2)nc1Oc1ccc(C#N)cc1` [Example 124, (S,E)-4-(4-cyanophenoxy)-2-cyclopentyl-N-(4-(methylsulfonyl)but-3-en-2-yl)pyrimidine-5-carboxamide] are 14 µM, 6.92 µM, over 10 µM and over 10 µM.
In the same order, the values of `C[C@@H](/C=C/S(C)(=O)=O)NC(=O)c1cnc(C2CCCC2)nc1Oc1cccnc1` [Example 125, (S,E)-2-cyclopentyl-N-(4-(methylsulfonyl)but-3-en-2-yl)-4-(pyridin-3-yloxy)pyrimidine-5-carboxamide] are 12.5 µM, 52.2 µM, over 10 µM and 3.1 µM.
In the same order, the values of `C[C@@H](/C=C/S(C)(=O)=O)NC(=O)c1cnc(C2CCCC2)nc1OC1CCC1` [Example 127, (S,E)-4-cyclobutoxy-2-cyclopentyl-N-(4-(methylsulfonyl)but-3-en-2-yl)pyrimidine-5-carboxamide] are 4.27 µM, 7.28 µM, 5.3 µM and 1.3 µM.
Regarding `C[C@@H](/C=C/S(C)(=O)=O)NC(=O)c1cnc(C2CCCC2)nc1OC1CCCCCC1` [Example 128, (S,E)-4-(cycloheptyloxy)-2-cyclopentyl-N-(4-(methylsulfonyl)but-3-en-2-yl)pyrimidine-5-carboxamide], the IC50 in test [1] stood at 5.9 µM; at WRN C727, 25.1 µM. The GI50 in the test on SW480 cells was 4.2 µM; in the test on HCT 116 cells, 2.5 µM.
In the same order, the values of `C[C@@H](/C=C/S(C)(=O)=O)NC(=O)c1cnc(C2CCCC2)nc1Oc1cccc(O)c1` [Example 136, (S,E)-2-cyclopentyl-4-(3-hydroxyphenoxy)-N-(4-(methylsulfonyl)but-3-en-2-yl)pyrimidine-5-carboxamide] are 11 µM, 18.5 µM, over 10 µM and 5.1 µM.
In the same order, the values of `C[C@@H](/C=C/S(C)(=O)=O)NC(=O)c1cnc(C2CCCC2)nc1Oc1ccccc1O` [Example 137, (S,E)-2-cyclopentyl-4-(2-hydroxyphenoxy)-N-(4-(methylsulfonyl)but-3-en-2-yl)pyrimidine-5-carboxamide] are 3.4 µM, 10 µM, over 10 µM and 0.98 µM.
In the same order, the values of `C[C@@H](/C=C/S(C)(=O)=O)NC(=O)c1cnc(C(C)(C)C)nc1O[C@@H]1C[C@@H]2C[C@@H]2C1` [Example 157, 4-[[(1S,5R)-3-bicyclo[3.1.0]hexanyl]oxy]-2-tert-butyl-N—[(E,1S)-1-methyl-3-methylsulfonyl-allyl]pyrimidine-5-carboxamide] are 4 µM, 15 µM, over 10 µM and 1.1 µM.
For `CC(C)(C)c1ncc(C(=O)N[C@H](/C=C/S(C)(=O)=O)C2CC2)c(O[C@H]2C[C@@H]3C[C@@H]3C2)n1` [Example 160, 4-(((1R,3s,5S)-bicyclo[3.1.0]hexan-3-yl)oxy)-2-(tert-butyl)-N—((S,E)-1-cyclopropyl-3-(methylsulfonyl)allyl)pyrimidine-5-carboxamide], the results for the IC50 (in test [1]; on WRN C727) were 0.9 µM and 6 µM, respectively. In addition, the GI50 is 3.4 µM with SW480 cells and 0.15 µM in the test on HCT 116 cells.
In the same order, the values of `C[C@@H](/C=C/S(C)(=O)=O)NC(=O)c1cnc(OC2CCCC2)nc1Oc1ccccc1` [Example 165, (S,E)-2-(cyclopentyloxy)-N-(4-(methylsulfonyl)but-3-en-2-yl)-4-phenoxypyrimidine-5-carboxamide] are 4.1 µM, 22.6 µM, over 10 µM and 2.7 µM.
In the same order, the values of `C[C@@H](/C=C/S(C)(=O)=O)NC(=O)c1cnc(N2C3CCC2CC3)nc1Oc1ccccc1` [Example 166, (S,E)-2-(7-azabicyclo[2.2.1]heptan-7-yl)-N-(4-(methylsulfonyl)but-3-en-2-yl)-4-phenoxypyrimidine-5-carboxamide] are 3.6 µM, 8.93 µM, over 10 µM and 0.69 µM.
In the same order, the values of `C[C@@H](/C=C/S(C)(=O)=O)NC(=O)c1cnc(N2CCCC2)nc1Oc1ccccc1` [Example 168, (S,E)-N-(4-(methylsulfonyl)but-3-en-2-yl)-4-phenoxy-2-(pyrrolidin-1-yl)pyrimidine-5-carboxamide] are 4.4 µM, 9.23 µM, 17 µM and 1.6 µM.
For the molecule `C[C@@H]1CC[C@H](C)N1c1ncc(C(=O)N[C@@H](C)/C=C/S(C)(=O)=O)c(Oc2ccccc2)n1` [Example 171, 2-((2R,5S)-2,5-dimethylpyrrolidin-1-yl)-N—((S,E)-4-(methylsulfonyl)but-3-en-2-yl)-4-phenoxypyrimidine-5-carboxamide], the IC50 was determined as 1.19 µM in test [1] and 4.45 µM at WRN C727. For the same molecule, the GI50 was found to be 8.1 µM in the test on SW480 cells and 0.434 µM in the test with HCT 116 cells.
In the same order, the values of `C[C@@H](/C=C/S(C)(=O)=O)NC(=O)c1cnc(N2CCCC2(C)C)nc1Oc1ccccc1` [Example 174, (S,E)-2-(2,2-dimethylpyrrolidin-1-yl)-N-(4-(methylsulfonyl)but-3-en-2-yl)-4-phenoxypyrimidine-5-carboxamide] are 6.8 µM, 11.2 µM, 11 µM and 2.2 µM.
In the same order, the values of `C[C@@H](/C=C/S(C)(=O)=O)NC(=O)c1cnc(N2CCC[C@@H]2C)nc1Oc1ccccc1` [Example 175, 2-((S)-2-methylpyrrolidin-1-yl)-N—((S,E)-4-(methylsulfonyl)but-3-en-2-yl)-4-phenoxypyrimidine-5-carboxamide] are 6.8 µM, 20 µM, 12 µM and 2.2 µM.
For the molecule `C[C@@H]1CCCN1c1ncc(C(=O)N[C@@H](C)/C=C/S(C)(=O)=O)c(Oc2ccccc2)n1` [Example 176, 2-((R)-2-methylpyrrolidin-1-yl)-N—((S,E)-4-(methylsulfonyl)but-3-en-2-yl)-4-phenoxypyrimidine-5-carboxamide], the IC50 in test [1] was determined as 1.6 µM; on WRN C727, 1.66 µM. For the same molecule, the GI50 with SW480 cells was 13 µM; with HCT 116 cells, 0.44 µM.
In the same order, the values of `CS(=O)(=O)/C=C/[C@@H](NC(=O)c1cnc(N2CCC2)nc1Oc1ccccc1)C1CC1` [Example 181, (S,E)-2-(azetidin-1-yl)-N-(1-cyclopropyl-3-(methylsulfonyl)allyl)-4-phenoxypyrimidine-5-carboxamide] are 0.87 µM, 27.2 µM, 17 µM and 0.0884 µM.
Take `CS(=O)(=O)/C=C/[C@@H](NC(=O)c1cnc(N2CC(F)C2)nc1Oc1ccccc1)C1CC1` [Example 182, (S,E)-N-(1-cyclopropyl-3-(methylsulfonyl)allyl)-2-(3-fluoroazetidin-1-yl)-4-phenoxypyrimidine-5-carboxamide]: the IC50 in test [1] amounted to 1.1 µM; on WRN C727 it was 4.86 µM. Further, the GI50 with SW480 cells stood at 19 µM; in the test with HCT 116 cells it was 0.108 µM.
